Among the data in PubChem BioAssay (NCI) are TGI and GI50 values, retold here.

Structures are written as SMILES.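 Growth conditions: 96-well plates. Treatment: test compound, 48 hours, 5 concentrations. Analysis: linear interpolation between bracketing concentrations; unreached endpoints set to highest concentration. At the GI50, growth is halved. Definition used: TGI = concentration required for complete inhibition of growth.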

The test system of the first test is HCC-2998 colon. Description: NCI anticancer screen, dose series, 48 h.
`Clc1ccc(NCc2nnc(CCCCCCCCc3nnc(CNc4ccc(Cl)cc4)o3)o2)cc1` came in with a TGI greater than 100 µM.
The compound `O=C(ON=C1c2ccccc2C(Br)C(Br)c2ccccc21)c1cc([N+](=O)[O-])cc([N+](=O)[O-])c1` (configuration not stated) showed a TGI of 68.3 µM.
Compound `O=C1C(Cl)C2(CC(/C=C/c3ccccc3Cl)=NN2c2cccc(S(=O)(=O)O)c2)N1c1nc2ccccc2s1` (configuration not stated) returned a TGI greater than 100 µM.
`O=C(CC(=O)N(C(=O)/C=C\c1ccccc1)c1ccc(Cl)cc1)N1N=C(c2ccccc2)C(N=Nc2cccc([N+](=O)[O-])c2)C1=O` (configuration not stated) showed a TGI greater than 100 µM.
In turn, `Cc1cc(=O)[nH]c(-n2[nH]c(C)c(CCO)c2=O)n1` showed a TGI greater than 100 µM.
The same measure, in the same setting: to `CCOC(=O)c1cnc2oc3ccc(O)cc3c2c1C` belongs greater than 100 µM; to `COC(=O)c1ccc(C)cc1CC1Cc2cc(C)ccc2C1=O` (configuration not stated), greater than 100 µM.
`NN(CC(=O)O)CC(=O)O`: the TGI is greater than 100 µM.

The next test deals with RPMI-8226 leukemia. In words: NCI anticancer screen, dose series, 48 h.
`CNc1ncnc2c1ncn2C1C=CC(COS(N)(=O)=O)C1` (configuration not stated): the TGI is greater than 100 µM.
Take `CCOc1cc(NC(C)=O)ccc1C(=O)NN1C(=O)C(Cl)C1c1ccccc1` (configuration not stated): the TGI stood at 28.7 µM.
On the same count and under the same terms, to `COC1=C(OC)C(=O)C(Cc2c(Cl)nc3sc(C)cn23)=C(C)C1=O` belongs 31.8 µM.
In turn, `CCCCCCCCCCCCCCCCCCNc1ccn(C2OC(COP(=O)(O)OCC3OC(n4cc(F)c(=O)[nH]c4=O)CC3O)C(O)C2O)c(=O)n1` (configuration not stated) registered a TGI greater than 53.3 µM.
The same measure, in the same setting: in the case of `O=C(CN1CCCCC1)Nc1ccc2sc3ccccc3c(=O)c2n1` it was 45.1 µM; in that of `CCOC(=O)/C(C#N)=C\c1ccc(N(CCC(=O)O)CCC(=O)O)c(I)c1`, greater than 10 µM; in that of `O=C(NC1=NCC(CN2CCN(c3ccccc3)CC2)O1)Nc1ccccc1` (configuration not stated), greater than 100 µM.
On the same count and under the same terms, in the case of `CC(=O)C(=C(c1ccccc1)c1ccccc1)c1ccccc1` it was greater than 100 µM; in that of `COC1(OC)c2no[n+]([O-])c2CCC1O` (configuration not stated), greater than 100 µM.
As to `C=CCNC(=O)NC(=O)CSC1=NNC2(C(=O)N1)c1ccccc1-c1ccccc12`, the TGI was greater than 10 µM.
In turn, `O=C1/C(=C/c2cccc(F)c2)CCCc2ccccc21` returned a TGI of 53.7 µM.
On the same count and under the same terms, in the case of `Clc1ccc(NCc2nnc(CCCCCCCCc3nnc(CNc4ccc(Cl)cc4)o3)o2)cc1` it was greater than 100 µM; in that of `O=C(ON=C1c2ccccc2C(Br)C(Br)c2ccccc21)c1cc([N+](=O)[O-])cc([N+](=O)[O-])c1` (configuration not stated), 37 µM; in that of `O=C1C(Cl)C2(CC(/C=C/c3ccccc3Cl)=NN2c2cccc(S(=O)(=O)O)c2)N1c1nc2ccccc2s1` (configuration not stated), 89.9 µM.
Regarding `O=C(CC(=O)N(C(=O)/C=C\c1ccccc1)c1ccc(Cl)cc1)N1N=C(c2ccccc2)C(N=Nc2cccc([N+](=O)[O-])c2)C1=O` (configuration not stated), the TGI was 93.4 µM.
On to `Cc1cc(=O)[nH]c(-n2[nH]c(C)c(CCO)c2=O)n1`, for which the TGI was greater than 100 µM.
Compound `CCOC(=O)c1cnc2oc3ccc(O)cc3c2c1C` gave a TGI greater than 100 µM.
In turn, `COC(=O)c1ccc(C)cc1CC1Cc2cc(C)ccc2C1=O` (configuration not stated) came in with a TGI greater than 100 µM.
`NN(CC(=O)O)CC(=O)O`: the TGI was greater than 100 µM.

Another test deals with UO-31 renal. Description: NCI anticancer screen, dose series, 48 h.
As to `CNc1ncnc2c1ncn2C1C=CC(COS(N)(=O)=O)C1` (configuration not stated), the TGI was greater than 100 µM.
For the compound `CCOc1cc(NC(C)=O)ccc1C(=O)NN1C(=O)C(Cl)C1c1ccccc1` (configuration not stated), the TGI amounted to 14.9 µM.
Compound `COC1=C(OC)C(=O)C(Cc2c(Cl)nc3sc(C)cn23)=C(C)C1=O` displayed a TGI of 42.9 µM.
Compound `CCCCCCCCCCCCCCCCCCNc1ccn(C2OC(COP(=O)(O)OCC3OC(n4cc(F)c(=O)[nH]c4=O)CC3O)C(O)C2O)c(=O)n1` (configuration not stated) showed a TGI greater than 100 µM.
Regarding `O=C(CN1CCCCC1)Nc1ccc2sc3ccccc3c(=O)c2n1`, the TGI came to 21.6 µM.
`CCOC(=O)/C(C#N)=C\c1ccc(N(CCC(=O)O)CCC(=O)O)c(I)c1` registered a TGI greater than 10 µM.
Same read-out and setting: in the case of `O=C(NC1=NCC(CN2CCN(c3ccccc3)CC2)O1)Nc1ccccc1` (configuration not stated) it was greater than 100 µM; in that of `CC(=O)C(=C(c1ccccc1)c1ccccc1)c1ccccc1`, greater than 100 µM.
With `COC1(OC)c2no[n+]([O-])c2CCC1O` (configuration not stated), the TGI is greater than 100 µM.
The compound `C=CCNC(=O)NC(=O)CSC1=NNC2(C(=O)N1)c1ccccc1-c1ccccc12` showed a TGI greater than 10 µM.
As to `O=C1/C(=C/c2cccc(F)c2)CCCc2ccccc21`, the TGI was 29.9 µM.
`Clc1ccc(NCc2nnc(CCCCCCCCc3nnc(CNc4ccc(Cl)cc4)o3)o2)cc1` registered a TGI greater than 100 µM.
`O=C1C(Cl)C2(CC(/C=C/c3ccccc3Cl)=NN2c2cccc(S(=O)(=O)O)c2)N1c1nc2ccccc2s1` (configuration not stated) displayed a TGI of 16.3 µM.
Compound `O=C(CC(=O)N(C(=O)/C=C\c1ccccc1)c1ccc(Cl)cc1)N1N=C(c2ccccc2)C(N=Nc2cccc([N+](=O)[O-])c2)C1=O` (configuration not stated) displayed a TGI greater than 100 µM.
`Cc1cc(=O)[nH]c(-n2[nH]c(C)c(CCO)c2=O)n1`: the TGI was greater than 100 µM.
`COC(=O)c1ccc(C)cc1CC1Cc2cc(C)ccc2C1=O` (configuration not stated) had a TGI greater than 100 µM.
Same read-out and setting: in the case of `NN(CC(=O)O)CC(=O)O` it was greater than 100 µM.

The next test deals with SF-268 CNS. In words: NCI anticancer screen, dose series, 48 h.
The compound `CNc1ncnc2c1ncn2C1C=CC(COS(N)(=O)=O)C1` (configuration not stated) had a TGI greater than 100 µM.
The compound `CCOc1cc(NC(C)=O)ccc1C(=O)NN1C(=O)C(Cl)C1c1ccccc1` (configuration not stated) registered a TGI of 43.8 µM.
In turn, `COC1=C(OC)C(=O)C(Cc2c(Cl)nc3sc(C)cn23)=C(C)C1=O` yielded a TGI of 37 µM.
The compound `CCCCCCCCCCCCCCCCCCNc1ccn(C2OC(COP(=O)(O)OCC3OC(n4cc(F)c(=O)[nH]c4=O)CC3O)C(O)C2O)c(=O)n1` (configuration not stated) gave a TGI greater than 50 µM.
Same read-out and setting: to `O=C(CN1CCCCC1)Nc1ccc2sc3ccccc3c(=O)c2n1` belongs 74.3 µM; to `CCOC(=O)/C(C#N)=C\c1ccc(N(CCC(=O)O)CCC(=O)O)c(I)c1`, greater than 10 µM.
Same read-out and setting: to `O=C(NC1=NCC(CN2CCN(c3ccccc3)CC2)O1)Nc1ccccc1` (configuration not stated) belongs greater than 100 µM; to `CC(=O)C(=C(c1ccccc1)c1ccccc1)c1ccccc1`, greater than 100 µM; to `COC1(OC)c2no[n+]([O-])c2CCC1O` (configuration not stated), greater than 100 µM.
`C=CCNC(=O)NC(=O)CSC1=NNC2(C(=O)N1)c1ccccc1-c1ccccc12` yielded a TGI greater than 10 µM.
Take `O=C1/C(=C/c2cccc(F)c2)CCCc2ccccc21`: the TGI stood at 28.1 µM.
`Clc1ccc(NCc2nnc(CCCCCCCCc3nnc(CNc4ccc(Cl)cc4)o3)o2)cc1` displayed a TGI greater than 100 µM.
Compound `O=C(ON=C1c2ccccc2C(Br)C(Br)c2ccccc21)c1cc([N+](=O)[O-])cc([N+](=O)[O-])c1` (configuration not stated) displayed a TGI of 35.7 µM.
The same measure, in the same setting: to `O=C1C(Cl)C2(CC(/C=C/c3ccccc3Cl)=NN2c2cccc(S(=O)(=O)O)c2)N1c1nc2ccccc2s1` (configuration not stated) belongs greater than 100 µM; to `O=C(CC(=O)N(C(=O)/C=C\c1ccccc1)c1ccc(Cl)cc1)N1N=C(c2ccccc2)C(N=Nc2cccc([N+](=O)[O-])c2)C1=O` (configuration not stated), 26.2 µM.
Compound `Cc1cc(=O)[nH]c(-n2[nH]c(C)c(CCO)c2=O)n1` came in with a TGI greater than 100 µM.
Consider `CCOC(=O)c1cnc2oc3ccc(O)cc3c2c1C`, for which the GI50 is 69.9 µM and the TGI was greater than 100 µM.
Compound `COC(=O)c1ccc(C)cc1CC1Cc2cc(C)ccc2C1=O` (configuration not stated) showed a TGI greater than 100 µM.
`NN(CC(=O)O)CC(=O)O` yielded a TGI greater than 100 µM.

Another test deals with OVCAR-5 ovarian. In words: NCI anticancer screen, dose series, 48 h.
The compound `CCOc1cc(NC(C)=O)ccc1C(=O)NN1C(=O)C(Cl)C1c1ccccc1` (configuration not stated) displayed a TGI of 31.4 µM.
`COC1=C(OC)C(=O)C(Cc2c(Cl)nc3sc(C)cn23)=C(C)C1=O` came in with a TGI of 35.9 µM.
In turn, `CCCCCCCCCCCCCCCCCCNc1ccn(C2OC(COP(=O)(O)OCC3OC(n4cc(F)c(=O)[nH]c4=O)CC3O)C(O)C2O)c(=O)n1` (configuration not stated) registered a TGI of 39.7 µM.
